Test results reported in US10709676B2 (GENEHEAL BIOTECHNOLOGY CO., LTD., priority 2016, dated 2020).

Molecular target: PAICS (Homo sapiens, UniProt P22234)
Settings: can reach; biochemical enzyme activity and cell biology experiments

Sequence of PAICS (P22234 whole entry): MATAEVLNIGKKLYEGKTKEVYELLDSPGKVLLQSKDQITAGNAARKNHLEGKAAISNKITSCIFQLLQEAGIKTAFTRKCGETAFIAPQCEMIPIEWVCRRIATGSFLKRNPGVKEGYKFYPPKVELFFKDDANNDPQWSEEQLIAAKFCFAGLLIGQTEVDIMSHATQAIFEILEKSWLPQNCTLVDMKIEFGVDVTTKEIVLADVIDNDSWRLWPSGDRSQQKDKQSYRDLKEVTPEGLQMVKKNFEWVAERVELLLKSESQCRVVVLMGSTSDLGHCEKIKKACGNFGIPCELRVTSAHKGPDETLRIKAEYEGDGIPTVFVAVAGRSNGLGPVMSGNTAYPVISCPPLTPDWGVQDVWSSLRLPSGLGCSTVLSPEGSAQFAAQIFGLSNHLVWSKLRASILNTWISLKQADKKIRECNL

inhibition ratio against SAICAR accumulation: 71.1%
SMILES: NCCCNCCCCNCCCN [spermine, Spermine]
